From the supplement of paper PMC10307832

Assays:
Experiment in all cases: relative viability (nuclei count vs DMSO), 5 days (fraction); higher = more cells survive
[1] = compound: NS(=O)(=O)OC[C@@H]1C[C@@H](n2ccc3c(N[C@H]4CCc5ccccc54)ncnc32)C[C@@H]1O [MLN4924] + Cc1cc(Nc2cc(N3CCN(C)CC3)nc(Sc3ccc(NC(=O)C4CC4)cc3)n2)n[nH]1 [Tozasertib] (partner 0.1 µM)
Outline: (§1)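 For relative viability, nuclei counts in treated wells were divided by those in vehicle wells. Lung cancer cell lines had been pin-tool dosed in 1536-well plates the day after seeding and cultured for 5 days, then fixed and stained in one step (final 0.05% Triton X-100, 1% formaldehyde, 1 ug/ml Hoechst) and imaged at 4×. Doses were one drug alone or a fixed anchor-drug dose plus five library-drug doses (not always all listed) in √10 steps, and values are duplicate-plate medians.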

[2] = compound: NS(=O)(=O)OC[C@@H]1C[C@@H](n2ccc3c(N[C@H]4CCc5ccccc54)ncnc32)C[C@@H]1O [MLN4924] + Cc1nc(NC(=O)N2CCC[C@H]2C(N)=O)sc1-c1ccnc(C(C)(C)C(F)(F)F)c1 [Alpelisib] (partner 2 µM)
Outline: as §1

[3] = compound: C1CC(C1)(C(=O)O)C(=O)O.[NH2-].[NH2-].[Pt+2] [Carboplatin] + CC1(C)CCC(c2ccc(Cl)cc2)=C(CN2CCN(c3ccc(C(=O)NS(=O)(=O)c4ccc(N[C@H](CCN5CCOCC5)CSc5ccccc5)c(S(=O)(=O)C(F)(F)F)c4)cc3)CC2)C1 [Navitoclax] (partner 0.5 µM)
Outline: as §1

[4] = compound: NS(=O)(=O)OC[C@@H]1C[C@@H](n2ccc3c(N[C@H]4CCc5ccccc54)ncnc32)C[C@@H]1O [MLN4924] + CC1(C)CCC(c2ccc(Cl)cc2)=C(CN2CCN(c3ccc(C(=O)NS(=O)(=O)c4ccc(N[C@H](CCN5CCOCC5)CSc5ccccc5)c(S(=O)(=O)C(F)(F)F)c4)cc3)CC2)C1 [Navitoclax] (partner 0.5 µM)
Outline: as §1

Cell Line	relative viability ([1]; first compound 0.04 µM)	relative viability ([1]; first compound 0.1265 µM)	relative viability ([1]; first compound 0.4 µM)	relative viability ([1]; first compound 1.265 µM)	relative viability ([1]; first compound 4 µM)	relative viability ([2]; first compound 0.04 µM)	relative viability ([2]; first compound 0.1265 µM)	relative viability ([2]; first compound 0.4 µM)	relative viability ([2]; first compound 1.265 µM)	relative viability ([2]; first compound 4 µM)	relative viability ([3]; first compound 0.08 µM)	relative viability ([3]; first compound 0.253 µM)	relative viability ([3]; first compound 0.8 µM)	relative viability ([3]; first compound 2.53 µM)	relative viability ([3]; first compound 8 µM)	relative viability ([4]; first compound 0.04 µM)	relative viability ([4]; first compound 0.1265 µM)	relative viability ([4]; first compound 0.4 µM)	relative viability ([4]; first compound 1.265 µM)	relative viability ([4]; first compound 4 µM)
201T	1.07	0.737	0.697	0.301	0.319	1.24	1.11	1.17	0.344	0.392	1.2	1.18	1.12	1.14	1.18	1.28	1.21	1.2	0.514	0.556
A549						0.657	0.748	0.61	0.05	0.05	1.25	1.29	1.18	0.985	0.535	1.02	0.991	0.197	0.04	0.0449
A-427	0.168	0.164	0.128	0.131	0.133	0.728	0.334	0.28	0.183	0.2	0.973	0.941	0.953	0.908	0.964	0.468	0.321	0.273	0.221	0.227
ABC-1	0.154	0.155	0.144	0.132	0.149	1.18	0.95	0.352	0.264	0.262										
BEN	0.411	0.308	0.35	0.228	0.222	0.868	0.458	0.372	0.151	0.147	0.0584	0.0591	0.0635	0.0642	0.0703	0.0403	0.0516	0.045	0.0476	0.0518
CAL-12T	0.325	0.365	0.262	0.237	0.167	1.09	1.18	0.39	0.529	0.191	1.2	1.21	1.23	1.26	1.09	1.11	1.11	0.469	0.398	0.204
COR-L23	0.207	0.205	0.181	0.122	0.0744	0.722	0.689	0.561	0.159	0.116	0.992	0.883	0.838	0.84	0.443	0.948	0.885	0.568	0.275	0.113
COR-L 105	0.343	0.331	0.323	0.247	0.241	0.836	0.702	0.413	0.257	0.31	0.66	0.809	0.595	0.822	0.531	0.725	0.511	0.326	0.231	0.281
Calu-6						1.09	1.07	0.388	0.14	0.148	0.931	0.77	0.824	0.737	0.296	0.667	0.232	0.162	0.119	0.128
ChaGo-K-1	0.22	0.174	0.221	0.184	0.158						1.17	1.01	0.944	0.798	0.53	0.708	0.574	0.394	0.309	0.326
EBC-1						0.78	0.768	0.276	0.132	0.151	0.479	0.364	0.443	0.401	0.33	0.348	0.262	0.172	0.112	0.139
EKVX	0.408	0.457	0.299	0.155	0.127	0.926	0.748	0.519	0.164	0.144	0.948	1.03	0.909	0.967	0.852	0.861	0.816	0.352	0.173	0.148
EMC-BAC-2	0.254	0.254	0.208	0.212	0.239	0.806	0.326	0.194	0.15	0.14	1.24	1.11	1.16	1.12	1.02	1.02	0.486	0.271	0.16	0.159
EPLC-272H	0.249	0.159	0.0675	0.132	0.133	1.05	0.957	0.131	0.136	0.195	1.15	1.18	0.978	1.29	1.11	0.94	1.02	0.104	0.12	0.141
H3255	0.671	0.374	0.339	0.236	0.286	0.694	0.548	0.265	0.175	0.242	0.658	0.563	0.634	0.471	0.476	0.592	0.434	0.226	0.131	0.175
HARA	0.101	0.0797	0.0797	0.0484	0.065	0.716	0.576	0.249	0.0868	0.0836	1.1	1.16	1.08	1.07	1.09	0.847	0.601	0.379	0.105	0.115
HCC-15	0.266	0.167	0.129	0.0769	0.0852	0.537	0.23	0.163	0.0818	0.0862	0.73	0.702	0.718	0.699	0.604	0.526	0.3	0.185	0.0995	0.114
HCC-44	0.816	0.471	0.186	0.231	0.272	0.7	0.347	0.162	0.15	0.134	0.949	0.99	0.914	0.786	0.874	0.689	0.4	0.265	0.197	0.196
HCC-78	0.564	0.458	0.453	0.172	0.141	0.429	0.253	0.536	0.149	0.139	0.782	0.92	0.707	0.751	0.816	0.91	0.537	0.767	0.158	0.117
HCC-366	0.151	0.173	0.159	0.0404	0.0333	0.58	0.733	0.877	0.369	0.027	1.08	1.12	1.13	1.02	0.753	1.06	1.09	0.353	0.241	0.0154

Cell Line	relative viability ([1]; first compound 0.04 µM)	relative viability ([1]; first compound 0.1265 µM)	relative viability ([1]; first compound 0.4 µM)	relative viability ([1]; first compound 1.265 µM)	relative viability ([1]; first compound 4 µM)	relative viability ([2]; first compound 0.04 µM)	relative viability ([2]; first compound 0.1265 µM)	relative viability ([2]; first compound 0.4 µM)	relative viability ([2]; first compound 1.265 µM)	relative viability ([2]; first compound 4 µM)	relative viability ([3]; first compound 0.08 µM)	relative viability ([3]; first compound 0.253 µM)	relative viability ([3]; first compound 0.8 µM)	relative viability ([3]; first compound 2.53 µM)	relative viability ([3]; first compound 8 µM)	relative viability ([4]; first compound 0.04 µM)	relative viability ([4]; first compound 0.1265 µM)	relative viability ([4]; first compound 0.4 µM)	relative viability ([4]; first compound 1.265 µM)	relative viability ([4]; first compound 4 µM)
HCC-827	0.415	0.347	0.408	0.165	0.167	0.893	0.47	0.595	0.234	0.159	0.999	0.98	0.927	0.982	0.918	0.925	0.747	0.492	0.275	0.237
HOP-62	0.359	0.198	0.0852	0.049	0.0903	0.903	0.627	0.29	0.0619	0.0676	1.04	1.08	0.789	0.902	0.748	0.553	0.238	0.171	0.111	0.0613
IA-LM						0.494	0.2	0.153	0.0773	0.0621	0.756	0.553	0.826	0.675	0.532	0.238	0.159	0.0746	0.0607	0.0616
LC-2-ad	0.434	0.344	0.362	0.218	0.198	0.834	0.729	0.41	0.153	0.0751	0.37	0.49	0.422	0.436	0.326	0.382	0.276	0.184	0.13	0.105
LCLC-97TM1	0.222	0.158	0.172	0.121	0.112	0.255	0.208	0.129	0.114	0.119	0.401		0.424	0.391	0.33	0.277	0.281	0.139	0.134	0.109
LCLC-103H	0.493	0.533	0.364	0.168	0.137	1.14	1.18	1.12	0.234	0.342										
LK-2	0.175	0.182	0.189	0.209	0.174	0.991	0.886	0.667	0.267	0.299	0.905	1.03	0.74	0.74	0.995	0.86	0.639	0.411	0.195	0.225
NCI-H358	0.108	0.0992	0.0886	0.0878	0.0989	1.01	0.899	0.34	0.189	0.162										
NCI-H522	0.503	0.502	0.458	0.363	0.304															
NCI-H650	0.584	0.356	0.307	0.161	0.187	1.06	0.513	0.339	0.204	0.232										
NCI-H661	0.343	0.329	0.359	0.338	0.375	0.664	0.887	0.502	0.231	0.351										
NCI-H1299						1.03	1.07	0.71	0.333	0.263	1.09	1.02	1.02	1.01	0.964	1.1	0.886	0.472	0.249	0.247
NCI-H1563						1.36	1.31	0.898	0.564	0.566										
NCI-H1623	0.42	0.372	0.398	0.203	0.195															
NCI-H1648	0.417	0.164	0.247	0.203	0.279															
NCI-H1650	0.319	0.299	0.341	0.203	0.164						1.33	1.11	1.13	1.07	0.726	1.02	0.739	0.438	0.156	0.176
NCI-H1703						0.22	0.177	0.189	0.135	0.121	1.31	1.2	1.11	1.07	1.49	0.133	0.14	0.188	0.133	0.124
NCI-H1792						0.685	0.758	0.944	0.441	0.21	0.887	0.682	0.667	0.618	0.567	0.594	0.46	0.567	0.338	0.109
NCI-H2342	0.416	0.455	0.533	0.445	0.408															
SW 900	0.625	0.474	0.435	0.171	0.114															
